From patent US20040106626A1, “6-Membered unsaturated heterocyclic compounds useful for selective inhibition of the coagulation cascade” (Pharmacia Corporation, priority 2001, published 2004)

Tests used:
Type in all cases: biochemical
[1] = target: T1, recombinant soluble tissue factor and recombinant human factor VIIa (TF-VIIa) (Homo sapiens, UniProt P08709); test: TF-VIIa assay (chromogenic substrate hydrolysis); details: reported only as less than or greater than 0.1 uM
T1 construct: conversion of coagulation factor VII to VIIa by factor Xa; purchased American Diagnostica, Greenwich CT; host or cells: soluble TF made in house in E. coli
Procedure, shortened: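 Chromogenic read at OD405, compared with control for percent inhibition. Substrate N-methylsulfonyl-D-phe-gly-arg-p-nitroaniline at 0.4 mM is cleaved by recombinant human VIIa (2 nM) complexed with soluble TF (100 nM). Buffer: pH 8.0 Tris-HCl 50 mM, CaCl2 5 mM, NaCl 100 mM, BSA 0.1%.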

[2] = target: T2, Human factor Xa (Homo sapiens, UniProt P00742); test: Xa assay (chromogenic substrate S-2765); details: reported only as less than or greater than 30 uM; read-out: Factor Xa (II) IC50
T2 construct: purchased Enzyme Research Laboratories, South Bend Ind
Procedure, shortened: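 Chromogenic readout: S-2765 hydrolysis (0.15 mM) by 0.3 nM human FXa was monitored at 405 nm after 60 min at room temperature, with a time-zero background read. Buffer: 50 mM Tris-HCl, pH 8.0, 100 mM NaCl, 0.1% BSA. Inhibition is relative to buffer-only controls.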

[3] = target: T3, Human thrombin (Homo sapiens, UniProt P00734); test: Thrombin assay (chromogenic substrate); details: reported only as less than or greater than 30 uM; read-out: Thrombin (II) IC50
T3 construct: converts prothrombin (II) to thrombin (IIa); purchased Calbiochem, La Jolla, Calif
Procedure, shortened: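 Percent inhibition derived by comparing OD405 nm of compound-treated and control samples. Thrombin cleavage of a p-nitroanilide chromogenic substrate provides the signal.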

[4] = test system: Normal human pooled plasma; test: Prothrombin time (PT) clotting assay; details: concentration at which prothrombin time is prolonged by 2x normal, reported as less than or greater than 50 uM
Procedure, shortened: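 Normal human pooled plasma incubated with 100 uM compound or saline, then thromboplastin (human tissue factor) added and clotting time recorded in a coagulation machine. Compounds exceeding 3× normal PT (11.0 s) are titrated to find the concentration doubling PT.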

T1 sequence (P08709 213-466 limits assumed): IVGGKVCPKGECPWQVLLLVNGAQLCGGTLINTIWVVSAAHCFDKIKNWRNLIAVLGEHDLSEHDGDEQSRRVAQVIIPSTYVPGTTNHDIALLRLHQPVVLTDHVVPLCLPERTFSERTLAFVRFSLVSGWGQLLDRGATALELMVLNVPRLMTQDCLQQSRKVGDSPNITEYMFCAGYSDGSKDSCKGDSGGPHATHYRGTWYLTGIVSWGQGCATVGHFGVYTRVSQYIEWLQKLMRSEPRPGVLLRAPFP
T1 sequence (P08709 61-212 limits assumed): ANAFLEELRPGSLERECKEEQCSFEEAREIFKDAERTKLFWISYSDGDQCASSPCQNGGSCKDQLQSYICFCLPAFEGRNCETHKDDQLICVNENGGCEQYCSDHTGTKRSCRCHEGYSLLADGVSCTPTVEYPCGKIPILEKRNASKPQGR
T1 sequence (P13726 33-251 partner limits assumed): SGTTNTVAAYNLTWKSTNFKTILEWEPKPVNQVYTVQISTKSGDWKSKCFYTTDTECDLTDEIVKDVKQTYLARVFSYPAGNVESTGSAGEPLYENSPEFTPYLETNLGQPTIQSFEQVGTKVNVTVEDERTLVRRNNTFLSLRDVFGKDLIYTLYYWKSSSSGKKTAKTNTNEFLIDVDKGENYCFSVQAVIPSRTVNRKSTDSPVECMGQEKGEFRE
T2 sequence (P00742 235-488 limits assumed): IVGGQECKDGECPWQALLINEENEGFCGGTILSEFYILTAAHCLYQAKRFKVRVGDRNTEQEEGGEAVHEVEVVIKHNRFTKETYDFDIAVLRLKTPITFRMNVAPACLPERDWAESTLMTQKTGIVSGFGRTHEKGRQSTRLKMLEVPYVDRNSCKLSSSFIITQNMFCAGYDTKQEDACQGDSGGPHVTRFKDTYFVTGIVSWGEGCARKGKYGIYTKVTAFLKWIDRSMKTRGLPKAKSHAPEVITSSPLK
T2 sequence (P00742 41-179 limits assumed): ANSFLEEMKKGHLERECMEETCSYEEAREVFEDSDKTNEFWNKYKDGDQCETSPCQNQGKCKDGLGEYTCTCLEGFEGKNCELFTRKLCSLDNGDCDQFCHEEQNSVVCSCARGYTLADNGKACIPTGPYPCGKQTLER

Compound | IC50 [1] [µM] | IC50 [2] [µM] | IC50 [3] [µM] | PT (Prothrombin time) 2xPT [4] [µM]
CC[C@@H](C)NC(=O)c1cc(N)cc(-c2cnc(NC(C)C)c(=O)n2CC(=O)NCc2ccc(C(=N)N)cc2OC)c1.O=C(O)C(F)(F)F.O=C(O)C(F)(F)F [Example 182, 3-amino-5-[1-[2-({4-[amino(imino)methyl]-2-methoxybenzyl}amino)-2-oxoethyl]-5-(isopropylamino)-6-oxo-1,6-dihydropyrazin-2-yl]-N-[(1R)-1-methylpropyl]benzamide] | < 0.1 | > 30 | < 30 | <50.0
CC[C@@H](C)NC(=O)c1cc(N)cc(-c2cnc(NC(C)C)c(=O)n2CC(=O)NCc2c(F)c(O)c(C(=N)N)c(F)c2F)c1.Cl.Cl [Example 185, 3-[1-[2-({4-[amino(imino)methyl]-2,3,6-trifluoro-5-hydroxybenzyl}amino)-2-oxoethyl]-5-(isopropylamino)-6-oxo-1,6-dihydropyrazin-2-yl]-N-[(1R)-1-methylpropyl]-5-aminobenzamide Dihydrochloride] | < 0.1 | > 30 | > 30 | <50.0
CC(C)Nc1ncc(-c2cc(N)cc(C(=O)NCc3ccc(F)c(O)c3)c2)n(CC(=O)NCc2ccc(C(=N)N)cc2)c1=O.O=C(O)C(F)(F)F [Example 186] | < 0.1 | > 30 | > 30 | <50.0
CCCCOC(=O)c1cc(N)cc(-c2cnc(NC(C)C)c(=O)n2CC(=O)NCc2ccc(C(=N)N)cc2)c1.O=C(O)C(F)(F)F [Example 187] | < 0.1 | > 30 | > 30 | <50.0
CC[C@H](C)NC(=O)c1cc(N)cc(-c2cnc(N[C@@H](C)C(C)C)c(=O)n2CC(=O)NCc2ccc(C(=N)N)cc2)c1.O=C(O)C(F)(F)F.O=C(O)C(F)(F)F [Example 190] | < 0.1 | > 30 | < 30 | <50.0
CC[C@H](C)NC(=O)c1cc(N)cc(-c2cnc(N[C@@H](C)CC)c(=O)n2CC(=O)NCc2ccc(C(=N)N)cc2)c1.O=C(O)C(F)(F)F.O=C(O)C(F)(F)F [Example 191] | < 0.1 | > 30 | < 30 | <50.0
CCCNc1ncc(-c2cc(N)cc(C(=O)N[C@@H](C)CC)c2)n(CC(=O)NCc2ccc(C(=N)N)cc2)c1=O.O=C(O)C(F)(F)F.O=C(O)C(F)(F)F [Example 192] | < 0.1 | > 30 | < 30 | <50.0
CC[C@H](C)NC(=O)c1cc(N)cc(-c2cnc(NC(C)C)c(=O)n2CC(=O)NCc2c(O)cc(C(=N)N)cc2O)c1 [Example 193] | > 0.1 | > 30 | > 30 | <50.0
CCNc1ncc(-c2cc(N)cc(C(=O)N[C@@H](C)CC)c2)n(CC(=O)NCc2ccc(C(=N)N)cc2)c1=O.O=C(O)C(F)(F)F.O=C(O)C(F)(F)F [Example 194] | < 0.1 | > 30 | > 30 | <50.0
CC[C@H](C)NC(=O)c1cc(N)cc(-c2cnc(NC(C)C)c(=O)n2CC(=O)NCc2c(O)cc(C(=N)N)cc2OC)c1 [Example 195] | < 0.1 | > 30 | > 30 | <50.0
CC[C@@H](C)NC(=O)c1cc(N)cc(-c2cnc(NC(C)C)c(=O)n2CC(=O)NCc2c(O)cc(C(=N)N)cc2OC)c1 [Example 198] | < 0.1 | > 30 | > 30 | <50.0
CC[C@@H](C)NC(=O)c1cc(N)cc(-c2cnc(NC(C)C)c(=O)n2CC(=O)NCc2c(O)cc(C(=N)N)cc2O)c1 [Example 199] | < 0.1 | > 30 | > 30 | <50.0
CC[C@H](C)NC(=O)c1cc(N)cc(-c2cnc(N[C@H](C)C(C)C)c(=O)n2CC(=O)NCc2ccc(C(=N)N)cc2)c1.O=C(O)C(F)(F)F.O=C(O)C(F)(F)F [Example 202] | < 0.1 | > 30 | < 30 | <50.0
CC[C@@H](C)Nc1ncc(-c2cc(N)cc(C(=O)N[C@@H](C)CC)c2)n(CC(=O)NCc2ccc(C(=N)N)cc2)c1=O.O=C(O)C(F)(F)F.O=C(O)C(F)(F)F [Example 203] | < 0.1 | > 30 | < 30 | <50.0
